Assay results as given in the supplement of paper PMC11451515.

Columns and labels:
SEM cells [1] = assay: AUC of viability dose-response curve (% viability x log10 dose units); higher = less sensitive; conditions: 48 h
Method in brief: (§1)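 Medium-adapted leukemia cells in 1536-well plates, at 500 or 1000 cells/well, were incubated for 48 h at 37°C with library compounds in DMSO at 11 threefold doses from 47 μM to 0.79 nM. CellTiter-Glo One luminescence normalised per plate to DMSO and cell-free wells was fitted with a four-parameter log-logistic model over log10 doses. Area under the curve was integrated from this fit by trapezoidal rule, with curves beyond full viability scaled and failed quality-control curves removed.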

P12-Ichikawa = assay: as above; conditions: 48 h
Method in brief: as §1

NOMO1 [2] = assay: as above; conditions: 48 h
Method in brief: as §1

SEM cells [3] = assay: cell viability relative to DMSO control; higher = less cytotoxic; conditions: 48 h
Method in brief: (§2)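 NOMO1 or SEM (500 cells/well) or P12-Ichikawa (1000 cells/well) leukemia cells were adapted for at least four passages in each medium. They were seeded in 1536-well plates (5 μl) and pin-dosed with library compounds in DMSO over an 11-point threefold series, 47 μM to 0.79 nM. CellTiter-Glo One luminescence was read after 48 h at 37°C. Viability is the per-plate percentage relative to DMSO wells, with cell-free wells as background.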

NOMO1 [4] = assay: as above; conditions: RPMI 5 mM glucose + 10% FBS, 48 h
Method in brief: as §2

NCCc1c[nH]cn1
AUC of viability dose-response curve
Conditions	NOMO1 [2]	P12-Ichikawa	SEM cells [1]
HPLM + 10% dialyzed FBS	466	456	473
RPMI 5 mM glucose + 10% FBS	460	449	437
RPMI 5 mM glucose + 10% dialyzed FBS	444	461	432

Nc1ccn([C@H]2CS[C@@H](CO)O2)c(=O)n1
Conditions	AUC of viability dose-response curve	cell viability [%]
NOMO1 [2], HPLM + 10% dialyzed FBS	459	–
NOMO1 [2], RPMI 5 mM glucose + 10% FBS	464	–
NOMO1 [2], RPMI 5 mM glucose + 10% dialyzed FBS	472	–
NOMO1 [4], 0.000781 µM	–	112
NOMO1 [4], 0.00234 µM	–	122
NOMO1 [4], 0.00702 µM	–	144
NOMO1 [4], 0.0211 µM	–	133
NOMO1 [4], 0.0632 µM	–	135
NOMO1 [4], 0.19 µM	–	138
NOMO1 [4], 0.569 µM	–	139
NOMO1 [4], 1.71 µM	–	148
NOMO1 [4], 5.12 µM	–	133
NOMO1 [4], 15.4 µM	–	140
NOMO1 [4], 46.1 µM	–	145
P12-Ichikawa, HPLM + 10% dialyzed FBS	440	–
P12-Ichikawa, RPMI 5 mM glucose + 10% FBS	471	–
P12-Ichikawa, RPMI 5 mM glucose + 10% dialyzed FBS	464	–
SEM cells [1], HPLM + 10% dialyzed FBS	454	–
SEM cells [1], RPMI 5 mM glucose + 10% FBS	445	–
SEM cells [1], RPMI 5 mM glucose + 10% dialyzed FBS	470	–

cell viability [%], SEM cells [3]
Conditions	HPLM + 10% dialyzed FBS	RPMI 5 mM glucose + 10% FBS	RPMI 5 mM glucose + 10% dialyzed FBS
0.000781 µM	81.2	101	104
0.00234 µM	108	116	136
0.00702 µM	109	108	117
0.0211 µM	122	135	134
0.0632 µM	137	157	144
0.19 µM	126	138	138
0.569 µM	123	141	139
1.71 µM	129	130	135
5.12 µM	123	144	138
15.4 µM	101	153	110
46.1 µM	147	144	135

CSCC[C@H](NC(=O)[C@H](Cc1c[nH]c2ccccc12)NC(=O)CCNC(=O)OC(C)(C)C)C(=O)N[C@@H](CC(=O)O)C(=O)N[C@@H](Cc1ccccc1)C(N)=O
AUC of viability dose-response curve
Conditions	NOMO1 [2]	P12-Ichikawa	SEM cells [1]
HPLM + 10% dialyzed FBS	440	470	460
RPMI 5 mM glucose + 10% FBS	453	464	461
RPMI 5 mM glucose + 10% dialyzed FBS	456	470	459

O[C@@H]1[C@@H](O)[C@H](O[C@@H]([C@H]1O)C(O)=O)OC2=C(O)C(=C3C(=O)\C=C(/OC3=C2)C4=CC=CC=C4)O
AUC of viability dose-response curve
Conditions	NOMO1 [2]	P12-Ichikawa	SEM cells [1]
HPLM + 10% dialyzed FBS	445	447	446
RPMI 5 mM glucose + 10% FBS	427	448	409
RPMI 5 mM glucose + 10% dialyzed FBS	460	460	425

Cc1ncc(-c2ccnc(Nc3ccc([S+](C)(=O)[O-])cc3)n2)n1C(C)C
AUC of viability dose-response curve
Conditions	NOMO1 [2]	P12-Ichikawa	SEM cells [1]
HPLM + 10% dialyzed FBS	400	437	367
RPMI 5 mM glucose + 10% FBS	396	412	357
RPMI 5 mM glucose + 10% dialyzed FBS	389	416	380

CN(C)CCCN\C1=C\2C(=O)N(C)C(=O)\N=C2N(C)C3=C1C=CC=C3
AUC of viability dose-response curve
Conditions	NOMO1 [2]	P12-Ichikawa	SEM cells [1]
HPLM + 10% dialyzed FBS	446	442	396
RPMI 5 mM glucose + 10% FBS	446	421	394
RPMI 5 mM glucose + 10% dialyzed FBS	432	429	397
